# Data as given in patent publication US20150343038A1, “METHOD AND COMPOSITION FOR TREATING SPASTICITY” (THE REGENTS OF THE UNIVERSITY OF CALIFORNIA, priority 2013, published 2015).
# Entries after “also recorded” stand apart in the source; their conditions may differ. Like-named read-outs stand apart in the source and are kept apart here.
# Experiments:
# [1] = system: rats with ischemic spasticity; test: Hoffmann reflex (H-wave amplitude) during high frequency (20 Hz) stimulation; type: in vivo, rat
# Protocol: H-reflex was recorded as previously described. Under ketamine anesthesia (100 mg/kg/hr, i.m.) the right hind limb of the animal was secured and a pair of stimulating needle electrodes was transcutaneously inserted into the surroundings of the tibial nerve. For recording, a pair of silver needle electrodes was placed into the interosseous muscles between the fourth and the fifth or the first and the second metatarsal right foot muscles. The tibial nerve was stimulated using square pulses with increasing stimulus intensity (0.1-10 mA in 0.5 mA increments, 0.1 Hz, 0.2 ms; WPI; Isostim A320) and responses were recorded with an A/C-coupled differential amplifier (Model DB4; DPI, Sarasota, Fla.). After the M-max and H-max responses were identified the intensity of stimulus which evoked H-max amplitudes were used in subsequent high frequency (20 Hz) stimulation experiment. In HIV1-CMVGAD65-GFP (n=6) or HIV1-CMV-GFP (n=6) lentivirus-injected animals a high frequency stimulation was performed in 5 min intervals for up to 90 min after tiagabine (40 mg/kg, i.p.) injection. Changes in H-wave amplitude were then compared between both lentivirus-injected groups.
# spasticity = conditions: cited from earlier work; for anti-spasticity effect in clinical studies: systemic (tiagabine: clinically-acceptable doses) or spinal administration
# [2] = system: rats with ischemic spasticity; type: in vivo, rat
# [3] = system: upper extremity motor function; test: Side effects / upper extremity motor function in treated spastic rats; type: in vivo, rat
# [4] = system: lumbar gray matter extracellular GABA; test: Spinal cord microdialysis, extracellular GABA by HPLC; type: in vivo, rat; conditions: tiagabine 40 mg/kg i.p., at 20-40 min
# Protocol: Spinal cord microdialysis was performed in naive (n=6), spastic-non treated (n=6), spastic HIV1-CMV-GFP lentivirus-injected (n=6) and spastic HIV1-CMV-GAD65-GFP (n=6) lentivirus-injected animals. Rats were anesthetized with 2% isoflurane, previous laminectomy site (in lentivirus injected animals) re-exposed and concentric microdialysis probe (A-2-8-02; cut off: MW 50,000; EICOM, Japan) placed into central gray matter between L3-L6 spinal cord segments. Microdialysis fiber was perfused with artificial CSF at 2 μl/min and samples collected on dry ice. After 120 min washout samples were collected in 20 min intervals before and after tiagabine (40 mg/kg, i.p.) injections and analyzed for GABA using HPLC (HTEC-500; EICOM).
# [5] = rats; cited from earlier work
# brain extracellular GABA = conditions: after systemic administration of 11.5-21 mg/kg; cited from earlier work
# [6] = human patients; cited from earlier work
# [7] = system: in vitro cultured neurons; conditions: cited from earlier work
# [8] = system: rats with ischemic spasticity; conditions: intrathecal baclofen (1 μg elsewhere in the source); previous studies, same spinal ischemia-induced spasticity model; cited from earlier work
# spastic patients = conditions: intrathecal treatment; cited from earlier work
structure (smiles),measurement,setting,value
Cc1ccsc1C(=CCCN1CCC[C@@H](C(=O)O)C1)c1sccc1C [tiagabine],change in H-wave amplitude,"[1]; tiagabine 40 mg/kg i.p., HIV1-CMV-GAD65-GFP-injected spastic rats, ketamine-sedated",significant (p<0.05) reduction
same,change in H-reflex amplitudes,"[1]; tiagabine 40 mg/kg i.p., control HIV1-CMV-GFP-injected spastic rats, up to 90 min, ketamine-sedated",no change
same,H-wave amplitude returned back to baseline by,[1]; {},≤ 65 min
same,time window of significant H-wave amplitude reduction after tiagabine injection,[1]; {},20 to 45 min
same,anti-spasticity effect in clinical studies,spasticity,only a weak or no anti-spasticity effect
same,time of peak anti-spasticity effect after tiagabine administration,[2]; HIV1-CMV-GAD65-GFP-injected spastic rats,25 min
same,tiagabine doses providing significant (p<0.01) anti-spasticity effect,"[2]; dose response 1, 4, 10, 20, 40 mg/kg, at 15-25 min after injection, HIV1-CMV-GAD65-GFP-injected spastic rats",≥ 4 mg/kg
same,anti-spasticity effect,[2]; systemic tiagabine in spastic rats injected spinally (L2-L5) with GAD65-encoding lentivirus (HIV1-CMV-GAD65-GFP),"potent, dose-dependent reduction in spasticity; also recorded: potent and tiagabine-dose-dependent alleviation of spasticity; also recorded: potent and significant anti-spasticity effect"
same,anti-spasticity effect,[2]; tiagabine 40 mg/kg i.p. alone (monotherapy),without anti-spasticity effect
same,anti-spasticity effect,[2]; tiagabine 40 mg/kg i.p. followed 15 min later by intrathecal GABA 1 mg,potent and highly significant anti-spasticity effect
same,anti-spasticity effect,[2]; tiagabine 40 mg/kg i.p. in spastic rats injected spinally with control HIV1-CMV-GFP lentivirus,no antispasicity effect; also recorded: without effect
same,effect on upper limb motor function,[3]; after tiagabine in spastic rats with lumbar GAD65 lentivirus injection,No detectable effect
same,side effect,[3]; either treatment alone (GAD65-LVs injection only or tiagabine only),nor had any detectable side effect
same,effect on upper extremity motor function,[3]; tiagabine 40 mg/kg i.p. + intrathecal GABA 1 mg,No suppressive effect
same,"spinal extracellular GABA concentration, change after tiagabine",[4]; HIV1-CMV-GAD65-GFP lentivirus-injected spastic animals,significant (p<0.05) increase
same,"spinal extracellular GABA concentration, change after tiagabine",[4]; naive animals,significant (p<0.05) increase
same,serum half-life,[5],0.917 h
same,increase in brain levels of extracellular GABA,brain extracellular GABA,2-3 fold
same,serum half-life,[6],5 to 8 h
"NCCCC(=O)O [GABA, gamma-aminobutryic acid]",anti-spasticity effect,"[2]; GABA 1 mg intrathecal alone, measured for 60 min",No significant anti-spasticity effect
same,concentrations required to exert receptor-mediated effect,[7],1 to 2 µmol
NCC(CC(=O)O)c1ccc(Cl)cc1 (stereo not shown) [baclofen],anti-spasticity effect,[8],potent anti-spasticity effect; also recorded: previously reported anti-spasticity effect
same,anti-spasticity effect in clinical studies,spasticity,most potent anti-spasticity pharmacological treatment
same,major side effects limiting chronic use,spasticity; systemic or spinally-administered,general sedation and progressive tolerance development
same,H-reflex activity,spastic patients,significant suppression of H-reflex activity
